These are literature values, as cited in US20170334959A1 (priority 2015, published 2017).

The test system of one data set is isolated nerves. Particulars: cited from earlier work.
The test system of data set [1] is acute and inflammatory pain. Conditions: in vivo; cited from earlier work.

Regarding “YCQKWMWTCDSERKCCEGMVCRLWCKKKLW-COOH [wild-type Protoxin-II]”, in the data set on isolated nerves, the “inhibition of action potential firing in isolated nerves” value is “inability”. In data set [1], the “efficacy in rodent models of acute and inflammatory pain” value is given as “non-efficacious”.
